Laboratory results reported in ChEMBL document CHEMBL4406903, “Synthesis of benzopyran derivatives as PPARα and/or PPARγ activators” (Bioorg Med Chem, 2019).
The source made the active and inactive calls. No cut-off for these calls is given here.

Tests used:
Type in all cases: cell-based
[1] = target: T1, Peroxisome proliferator-activated receptor alpha (Homo sapiens) (UniProt Q07869); assay: Agonist activity at GAL4-fused human PPARalpha expressed in COS7 cells incubated for 24 hrs by luciferase reporter gene assay
T1 sequence (whole entry): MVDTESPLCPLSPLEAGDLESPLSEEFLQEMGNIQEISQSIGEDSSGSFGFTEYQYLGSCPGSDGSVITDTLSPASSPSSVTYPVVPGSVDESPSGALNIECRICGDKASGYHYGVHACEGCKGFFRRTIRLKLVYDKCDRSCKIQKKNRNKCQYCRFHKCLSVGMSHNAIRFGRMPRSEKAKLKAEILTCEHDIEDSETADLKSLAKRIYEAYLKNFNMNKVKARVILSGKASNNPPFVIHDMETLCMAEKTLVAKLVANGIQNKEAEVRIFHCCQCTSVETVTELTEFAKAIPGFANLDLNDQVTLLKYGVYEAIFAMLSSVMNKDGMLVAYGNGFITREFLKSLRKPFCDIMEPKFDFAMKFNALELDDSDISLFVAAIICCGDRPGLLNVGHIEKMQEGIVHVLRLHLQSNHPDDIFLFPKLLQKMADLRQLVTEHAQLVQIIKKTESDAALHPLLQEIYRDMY

[2] = target: T2, Peroxisome proliferator-activated receptor gamma (Homo sapiens) (UniProt P37231); assay: Agonist activity at GAL4-fused human PPARgamma expressed in COS7 cells incubated for 24 hrs by luciferase reporter gene assay
T2 sequence (whole entry): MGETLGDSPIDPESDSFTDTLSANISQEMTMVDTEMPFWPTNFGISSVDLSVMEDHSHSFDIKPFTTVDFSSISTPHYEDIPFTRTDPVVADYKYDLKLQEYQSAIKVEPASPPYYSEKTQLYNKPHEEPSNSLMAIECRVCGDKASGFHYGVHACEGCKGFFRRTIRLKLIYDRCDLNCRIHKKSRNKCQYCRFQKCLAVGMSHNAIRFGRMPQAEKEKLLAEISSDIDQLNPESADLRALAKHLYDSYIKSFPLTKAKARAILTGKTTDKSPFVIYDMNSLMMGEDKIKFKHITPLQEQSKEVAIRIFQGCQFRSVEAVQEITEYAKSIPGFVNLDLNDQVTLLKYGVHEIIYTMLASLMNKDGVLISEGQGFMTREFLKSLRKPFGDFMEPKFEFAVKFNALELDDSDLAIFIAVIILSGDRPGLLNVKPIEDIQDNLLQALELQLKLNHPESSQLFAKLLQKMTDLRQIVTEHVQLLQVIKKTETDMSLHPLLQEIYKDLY

[3] = target: T1, Peroxisome proliferator-activated receptor alpha (Homo sapiens); assay: Transactivation of GAL4-fused human PPARalpha expressed in COS7 cells assessed as efficacy at 10 uM incubated for 24 hrs by luciferase reporter gene assay relative to WY-14643
[4] = target: T2, Peroxisome proliferator-activated receptor gamma (Homo sapiens); assay: Transactivation of GAL4-fused human PPARgamma expressed in COS7 cells assessed as efficacy at 10 uM incubated for 24 hrs by luciferase reporter gene assay relative to rosiglitazone

Structure (SMILES) | Activity [1] | Activity [2] | Efficacy [3] | Efficacy [4]
CCCCCC1(C)CC(O)c2cc(O)ccc2O1 (centres undefined) | inactive | inactive | – | –
CC(O)CCC1(C)CC(=O)c2cc(O)ccc2O1 (centres undefined) | Active | – | 23% | inactive
CC(C)=CCCC1(C)CC(O)c2cc(O)ccc2O1 (centres undefined) | inactive | inactive | – | –
Cc1cccc(Nc2cc(Cl)nc(SCC(=O)O)n2)c1C | – | – | – | inactive
CCCCCC1(C)CC(=O)c2c(ccc(O)c2Cl)O1 (centres undefined) | – | Active | inactive | 30%
CC(=O)Oc1ccc2c(c1)C(=O)CC(C)(CCC(C)OC(C)=O)O2 (centres undefined) | Active | – | 40% | inactive
CC1(CCC(=O)O)CCc2cc(O)ccc2O1 (centres undefined) | Active | – | 21% | inactive
CC(C)(O)CCC1(C)CC(=O)c2cc(O)ccc2O1 (centres undefined) | Active | – | 23% | inactive
CCOC(=O)CCC1(C)CC(=O)c2cc(O)ccc2O1 (centres undefined) | Active | – | 16% | inactive
C=C(C)CCC1(C)CCc2cc(O)ccc2O1 (centres undefined) | Active | – | 35% | inactive
COC(=O)CCC1(C)CCc2cc(O)ccc2O1 (centres undefined) | Active | – | 33% | inactive
